For data set [1], the system named is naïve mice. Nature of the data set: Von Frey testing of mechanical thresholds in naïve mice (WT and knockout). The class given is in vivo, mouse. Conditions: naïve mice; for dose exhibiting the largest increase in paw withdrawal thresholds: i.t.; for mechanical sensory thresholds (von Frey): i.t. injection. As for the experimental part:
Reflexive-based sensory testing in mice: All behavioral testing in mice was performed in a specialized humidity- and light-controlled mouse behavior facility maintained at 21-24° C., with testing conducted between the hours of 8:00-16:00. Mice were habituated to the testing environment for at least 2 days prior to baseline testing. All tests were performed by an experimenter who was blinded to experimental conditions, including genotypes and drug treatment. For multi-day experiments using STING agonists, mice were tested in the same room at approximately the same time each day. To measure mechanical sensitivity, mice were confined to individual chambers with non-transparent borders on an elevated mesh rack, preventing mice from visualizing or interacting with one another during the testing period. Mouse hindpaws were stimulated with a series of von Frey filaments with logarithmically increasing stiffness (0.02-2.56 g, Stoelting), which was applied perpendicularly to the central plantar surface. We determined the 50% paw withdrawal threshold using the up-down method. […] To test cold sensitivity, mice were again placed on an elevated metal mesh floor in isolated chambers, and a ˜20 μl acetone drop was applied to the central plantar surface of the mouse hindpaw using a pipette.
For the experiments utilizing i.t. 2′3′-cGAMP and 3′3′-cGAMP complexed with Lipofectamine 2000 (ThermoFisher, 11668), 10 μg 2′3′-cGAMP or 3′3′-cGAMP was incubated at room temperature for 30 minutes in sterile PBS with 3 μl Lipofectamine 2000. In this case, the vehicle control was 3 μl Lipofectamine 2000 in PBS, as in a previous study which used this approach. […] For experiments utilizing rabbit anti-IFN-α or -β neutralizing antibodies, a polyclonal rabbit IgG antibody served as the control. Antibodies were utilized in vivo at 300 ng/mouse or in vitro at 300 ng/ml. Paclitaxel was administered via repeated i.p. injections every other day for 4 days at a dose of 2 mg/kg. For the whole mount DRG recordings, young mice (4-6 weeks) were administered a single 6 mg/kg dose one week prior to the experiment. All intrathecal injections were performed under brief anesthesia with 2-2.5% isoflurane. Drugs administered by intrathecal injection were preceded by shaving a small area on the back corresponding to the injection site, followed by spinal puncture using a 30-gauge needle between the L5-L6 levels to deliver a maximum of 5-10 μl into the cerebrospinal fluid. Successful intrathecal injection was always confirmed by a brisk tail-flick upon delivery. For the experiments involving intraplantar (i.pl.) injection, IFN-α was dissolved in sterile saline and administered at the concentrations indicated in the figures in a total volume of 20 μl, administered under 2-2.5% isoflurane anesthesia to minimize animal stress. For these experiments, vehicle (saline) or IFN-α were slowly and carefully expressed into the left dorsal hindpaw of anesthetized mice and allowed to perfuse the tissue for ˜20 seconds prior to removal of the needle. […] Mechanical sensory testing was done anteriorly and care was taken to avoid Von Frey filament stimulation of the injection site.

Data set [2] concerns naïve mice. Nature of the data set: Conditioned place preference (CPP) assay in naïve mice. Conditions: i.t., morphine 2 nmol, DMXAA or ADU-S100 35 nmol. As for the experimental part: All mice underwent 3 d of preconditioning habituation in a temperature- and humidity-controlled room under low-light conditions between 08:00-16:00 in a two compartment CPP chamber (Med Associates Inc.). The two compartments differed by both visual and tactile cues. On the 4th day, animal behavior was video-recorded using a webcam connected to a laptop computer, and animal movement was automatically tracked for 15 minutes using the ANY-Maze software (Stoelting). […] On the conditioning day(s) (day 5 for single trial; day 5-7 for repeated trials), two pairing sessions were performed, with vehicle pairing in the AM session and drug treatment (e.g., vehicle or drug) in the PM session, separated by 4 h. In the AM session, mice always received vehicle (10 μl saline, delivered via i.t. injection under isoflurane anesthesia) and were immediately placed in their preferred CPP chamber for 2 h. […] 24 h after the completion of the pairing experiments, mice were placed in the CPP test box with access to both chambers and behavior was recorded for 15 minutes and analyzed using the ANY-Maze software for chamber preference. CPP score was calculated as the inverse of the time spent in the preferred chamber according to: [post-preference (sec)—pre-preference (sec)]. Vehicle served as a negative control for these experiments, while morphine (three trials/naïve mice) or clonidine (single trial/ongoing pain) served as positive controls.

Data set [3] concerns naïve mice. Nature of the data set: Naloxone reversal of antinociception. Conditions: naloxone 10 mg/kg i.p.; morphine 2 nmol i.t., DMXAA or ADU-S100 35 nmol i.t. The class given is in vivo, mouse. As for the experimental part: Following naloxone delivery, mice were tested within 15 minutes. For the experiments testing whether mice developed tolerance to the effects of STING agonists, vehicle or DMXAA (35 nmol) were administered via i.t. injection. Naïve mice received five single injections at D0, D3, D6, D9, and D12, with testing each day 4 h after injection. SNI mice received injections on two consecutive days beginning on D7 (D7 and D8) and every 48 h afterwards following the conclusion of sensory testing (D10, D12, D14, D16, and D18). Spinal cords (L4-L5) were collected for analysis of glial cell activation at D21 following SNI.

Data set [4] relates to tumor-bearing femora. Nature of the data set: In vivo X-ray radiography of bone destruction, LLC model. More on the design: species or system mouse. The conditions noted are these: for bone destruction score: LLC model, twice i.p. The source says: In vivo X-ray radiography. Osteolytic bone destruction was continuously evaluated by radiography using the MultiFocus by Faxitron system (Faxitron Bioptics LLC, Tucson, Ariz.). Radiographs of tumor-bearing femora were rated for bone destruction on a 0-5 score scale based on previous study: 0 for normal bone at baseline without tumor inoculation; 1 for one to three radiolucent lesions indicative of bone destruction compared to baseline; 2 for increased number of lesions (three to six lesions) and loss of medullary bone; 3 for loss of medullary bone and erosion of cortical bone; 4 for full-thickness unicortical bone loss; 5 for full-thickness bicortical bone loss and displaced skeletal fracture. All radiographic image quantifications were completed by an experimenter who was blinded to the experimental conditions.

Data set [5] relates to tumor-bearing femora. Description: Bone fractures of tumor-bearing femora on d17 after LLC inoculation. In kind it is in vivo, mouse. The conditions noted are these: vehicle 87.5%. As for the experimental part: Development and progression of cancer-induced osteolytic bone destruction frequently leads to bone fracture, which is an important component of SREs in patients with bone metastasis and is associated with decreased overall survival. On d17 after LLC inoculation, mice were euthanized and the tumor bearing femora were collected and the distal tumor-bearing femur where bone destruction occurs was analyzed.

Entries after “also recorded” stand apart in the source; their conditions may differ.

In the case of `Cc1ccc2c(=O)c3cccc(CC(=O)O)c3oc2c1C` [DMXAA, 2-(5,6-dimethyl-9-oxo-9H-xanthen-4-yl)acetic acid], in the data set with naïve mice [1], the “dose exhibiting the largest increase in paw withdrawal thresholds” value is 10 µg and the “mechanical sensory thresholds (von Frey)” value is listed as “induced dose-dependent antinociception; also recorded: dose-dependent increase in paw withdrawal thresholds”. Further, the “conditioned place preference, repeated pairing” value in the data set with naïve mice [2] is “neither DMXAA nor ADU-S100 could induce place preference”. Also, in the data set with naïve mice [3], the “effect of naloxone on the antinociception of the substance” value was “had no effect”. Moreover, in the data set on tumor-bearing femora [4] (20 mg/kg i.p. d3 and d7), the “bone destruction in Batf3^−/− mice” value is “reduced bone destruction on d8 and d11 but not d15 in Batf3^−/− mice”; the “bone destruction score, WT and Rag1^−/−” value was “improvement in the bone destruction score in both WT and Rag1^−/− mice at d11, but not at d15”; the “bone destruction score, WT vs STING^gt/gt” value was “reduction in the bone destruction score in DMXAA-treated WT mice at d11 and d15 after tumor inoculation, and this effect was abolished in STING^gt/gt mice”. The bone destruction score entry in the data set with tumor-bearing femora [4] is “decreased the bone destruction score on d8, d11 and d15”. Moreover, the “bone destruction score, WT vs Ifnar1^−/−” value in the data set on tumor-bearing femora [4] (d11 and d15) is listed as “significantly reduced the bone destruction score without changing overall body weight in WT mice, but this effect was abolished in Ifnar1^−/− mice”. The “mice with distal bone fractures” value with tumor-bearing femora [5] is listed as 12.5%.
For the compound `Nc1ncnc2c1ncn2[C@@H]1O[C@@H]2COP(=O)([S-])O[C@@H]3[C@H](O)[C@@H](COP([O-])(=S)O[C@H]2[C@H]1O)O[C@H]3n1cnc2c(N)ncnc21.[Na+].[Na+]` (stereo partly drawn) [ADU-S100, (2′-5′)-[P(R)]-5′-O-[(R)-hydroxymercaptophosphinyl]-P-thioadenylyl-adenosine cyclic dinucleotide], in the data set on naïve mice [1], the “dose exhibiting the largest increase in paw withdrawal thresholds” value worked out at 25 µg and the “mechanical sensory thresholds (von Frey)” value is given as “induced dose-dependent antinociception”. Also, the “conditioned place preference, repeated pairing” value with naïve mice [2] is recorded as “neither DMXAA nor ADU-S100 could induce place preference”. The “effect of naloxone on the antinociception of the substance” value with naïve mice [3] was “had no effect”. The bone destruction score entry with tumor-bearing femora [4] is “reduced the bone destruction score at d11 and d15”. In the data set with tumor-bearing femora [5], the “mice with distal bone fractures” value amounted to 0%.

Values taken from patent US20230158057A1, “COMPOSITIONS AND METHODS FOR THE TREATMENT OF PAIN” (Duke University, priority 2020, published 2023).
